This is an account of results in paper PMC11840923, “Kinetic and Thermodynamic Characterization of Human 4-Oxo-L-proline Reductase Catalysis” (Biochemistry, 2025).

Assay [1] deals with T1, 4-oxo-L-proline reductase (HsBDH2) (Homo sapiens, UniProt Q9BUT1).
T1 construct: gene BDH2
As to the kind of experiment: ITC at […] °C, pH […] ([…] stoichiometry); also DSF and stopped-flow koff. In kind it is binding.

The target in assay [2] is T1, 4-oxo-L-proline reductase (HsBDH2). As to the kind of experiment: ITC at […] °C, pH […] (number of sites fixed at one); also DSF. In kind it is binding.

T1 sequence (Q9BUT1 whole entry): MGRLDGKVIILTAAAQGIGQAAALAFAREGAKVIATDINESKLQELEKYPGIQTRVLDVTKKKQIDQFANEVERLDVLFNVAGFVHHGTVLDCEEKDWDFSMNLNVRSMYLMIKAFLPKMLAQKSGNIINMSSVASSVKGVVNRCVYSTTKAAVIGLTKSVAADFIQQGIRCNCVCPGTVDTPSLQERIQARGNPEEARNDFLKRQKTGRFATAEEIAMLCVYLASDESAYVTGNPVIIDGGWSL

For the compound `NC(=O)C1=CN([C@@H]2O[C@H](COP(=O)(O)OP(=O)(O)OC[C@H]3O[C@@H](n4cnc5c(N)ncnc54)[C@H](O)[C@@H]3O)[C@@H](O)[C@H]2O)C=CC1` [NADH], the Kd in assay [1] worked out at 0.48 µM.
In turn, `NC(=O)c1ccc[n+]([C@@H]2O[C@H](COP(=O)([O-])OP(=O)(O)OC[C@H]3O[C@@H](n4cnc5c(N)ncnc54)[C@H](O)[C@@H]3O)[C@@H](O)[C@H]2O)c1` [NAD^+] gave a Kd in assay [2] of 29 µM.
